Values belong to the compound of their own block, whether it stands above or below them.
Assays:
[1] = test system: Rattus norvegicus; assay: Antiprogestin activity against ovariectomized Sprague-Dawley rat assessed as effect on ethinyl estradiol-induced C3 expression at 10 mg/kg, po; assay type: functional
[2] = test system: Rattus norvegicus; assay: Antiprogestin activity against ovariectomized po dosed Sprague-Dawley rat assessed as effect on ethinyl estradiol-induced C3 expression; assay type: functional; conditions: read-out: ID50 (the source's name)
[3] = Cmax in rat at 10 mg/kg, po; assay type: ADME, organism-based; set-up: dose 10 mg/kg, route oral; conditions: in vivo
[4] = Tmax in rat at 10 mg/kg, po; assay type: ADME, organism-based; set-up: dose 10 mg/kg, route oral; conditions: in vivo
[5] = Half life in rat at 10 mg/kg, po; assay type: ADME, organism-based; set-up: dose 10 mg/kg, route oral; conditions: in vivo
[6] = test system: Rattus norvegicus; assay: AUC (0 to infinity) in rat at 10 mg/kg, po; assay type: ADME, organism-based, Plasma; set-up: dose 10 mg/kg, route oral, time infinity; conditions: in vivo
[7] = Mean retention time in rat at 10 mg/kg, po; assay type: ADME, organism-based; set-up: dose 10 mg/kg, route oral; conditions: in vivo
[8] = test system: Rattus norvegicus; assay: AUC (last) in rat at 10 mg/kg, po; assay type: ADME, organism-based, Plasma; set-up: time 0 - last, dose 10 mg/kg, route oral; conditions: in vivo
[9] = Cmax in rat at 30 mg/kg, po; assay type: ADME, organism-based; set-up: dose 30 mg/kg, route oral; conditions: in vivo
[10] = test system: Rattus norvegicus; assay: AUC (0 to infinity) in rat at 30 mg/kg, po; assay type: ADME, organism-based, Plasma; set-up: time infinity, dose 30 mg/kg, route oral; conditions: in vivo
[11] = Mean retention time in rat at 30 mg/kg, po; assay type: ADME, organism-based; set-up: dose 30 mg/kg, route oral; conditions: in vivo
[12] = Half life in rat at 30 mg/kg, po; assay type: ADME, organism-based; set-up: dose 30 mg/kg, route oral; conditions: in vivo
[13] = test system: Rattus norvegicus; assay: AUC (last) in rat at 30 mg/kg, po; assay type: ADME, organism-based, Plasma; set-up: time 0 - last, dose 30 mg/kg, route oral; conditions: in vivo
[14] = Tmax in rat at 30 mg/kg, po; assay type: ADME, organism-based; set-up: dose 30 mg/kg, route oral; conditions: in vivo

SMILES: CC#C[C@]1(O)CC[C@H]2[C@@H]3OCC4=CC(=O)CCC4=C3[C@@H](c3ccc(N(C)C)cc3)C[C@@]21C
Efficacy [1]: 110%
ED50 [2]: 2.4 mg/kg

SMILES: CN(C)c1ccc([C@H]2C[C@@]3(C)[C@@H](CC[C@@]3(O)C#Cc3ccccc3)[C@@H]3OCC4=CC(=O)CCC4=C32)cc1
Efficacy [1]: 100%
ED50 [2]: 2.5 mg/kg

Cmax [3]: 48.7 ng/mL
Tmax [4]: 3 h
half-life [5]: 6.88 h
AUC [6]: 505 ng·h/mL
MRT [7]: 9.4 h
AUC [8]: 460 ng·h/mL
SMILES: CN(C)c1ccc([C@H]2C[C@@]3(C)[C@@H](CC[C@@]3(O)C#Cc3ccc(F)cc3)[C@@H]3OCC4=CC(=O)CCC4=C32)cc1

Cmax [9]: 53.8 ng/mL
AUC [10]: 3570 ng·h/mL
MRT [11]: 8 h
half-life [12]: 5.56 h
AUC [13]: 446 ng·h/mL
Tmax [14]: 12.5 h
SMILES: CC#C[C@]1(O)CC[C@H]2[C@@H]3CCC4=CC(=O)CCC4=C3[C@@H](c3ccc(N(C)C)cc3)C[C@@]21C [MIFEPRISTONE]
Efficacy [1]: 130%
ED50 [2]: 2.1 mg/kg

— ChEMBL document CHEMBL1157482, “Insight from molecular modeling into different conformation and SAR of natural steroids and unnatural 7-oxa-steroids” (Bioorg Med Chem Lett, 2008)
